Test results as given in US20150094294A1, “COMPOUNDS AND METHODS FOR TREATING MALARIA” (Cellceutix Corporation, priority 2012, published 2015).
In brackets after ≈: the same amount, converted by molar mass.

Legend:
Assay type in all cases: cell-based
[1] = test system: P. falciparum 3D7 (chloroquine-sensitive); test: Anti-malarial activity, P. falciparum 3D7 culture, 72 hour, DNA content by flow cytometry; settings: synchronized ring-stage parasites
How it was run: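 Magnet-synchronized ring-stage parasites in RPMI 1640/Albumax II were plated at 0.5% parasitemia, 4% final hematocrit, with compound added as 2× dilutions (2.5 μM to 20 nM) for 72 h. Fixed, Triton-permeabilized cells were stained with SYTOX Green (5 μM final), and DNA content was measured by flow cytometry to derive IC50.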

[2] = test system: P. falciparum DD2 (chloroquine-resistant); test: Anti-malarial activity, P. falciparum DD2 culture, 72 hour, DNA content by flow cytometry; settings: synchronized ring-stage parasites
Description: Numerous compounds were screened in cultures of the malaria parasite P. falciparum 3D7 (chloroquine-sensitive) and DD2 (chloroquine-resistant). The compounds were also screened for toxixcity against 3T3 cells, HepG2 cells, and in a hemolysis assay. In brief, P. falciparum parasites were cultured in RPMI 1640 (Invitrogen) supplemented with Albumax II (Invitrogen). For synchronization, schizont stage parasites were magnet purified using a SuperMACS™ II Cell Separation Unit (Miltenyi Biotech). For IC50 determinations, synchronized ring-stage parasites were plated at 0.5% parasitemia and 8% hematocrit in 96-well plates at a total volume of 50 μL. Serial dilutions of 2× concentration of the respective compound, ranging from 2.5 μM to 20 nM, were added to the wells to bring the total volume up to 100 μL and 4% hematocrit. Compounds were assayed for a 72 hour period, after which the cultures were fixed with a solution of 4% paraformaldehyde and 0.08% glutaraldhyde in PBS. The cells were then permeabilized with 0.25% Triton X-100, and SYTOX Green Nucleic Acid Stain (Invitrogen) in PBS was added to a final concentration of 5 μM. DNA content, as an indicator of parasitemia, was analyzed on an Accuri C6 Flow Cytometer with C-Sampler. IC50 curves were generated using GraphPad Prism (GraphPad Software).

[3] = Cytotoxicity against 3T3 cells; settings: mouse, 3T3 cells; read-out: Cytotoxicity 3T3 EC50
[4] = Cytotoxicity against HepG2 cells; settings: human, HepG2 cells; read-out: Cytotoxicity HepG2 EC50
in vitro = test: in vitro
3T3 cells = test: Cytotoxicity against 3T3 cells
HepG2 cells = test: Cytotoxicity against HepG2 cells
[5] = Plasmodium falciparum, 3D7, 72 h

| SMILES | IC50 [1] [µM] | EC50 (in vitro) [µg/mL] | IC50 ([2]; Plasmodium falciparum) [µM] | EC50 (3T3 cells) [µM] | EC50 (HepG2 cells) [µM] | other results |
| --- | --- | --- | --- | --- | --- | --- |
| NCCCOc1c(-c2cccc(C(F)(F)F)c2)cc(-c2cccc(C(F)(F)F)c2)c(OCCCN)c1-c1cccc(C(F)(F)F)c1 [Compound 145] |  | 6 (≈ 9.14 µM) | 0.658 |  |  | EC50 [3]: 14 µM; EC50 [4]: 28 µM |
| FC(F)(F)c1cc(NC2CCNCC2)ccc1Oc1ccc(Oc2ccc(NC3CCCNC3)cc2C(F)(F)F)cc1 (centres unmarked) [Compound 165] |  | 16 (≈ 26.9 µM) | 1.18 |  |  | IC50 [1, 5]: 0.904 µM |
| N=C(N)NCCCOc1cc(OCCCNC(=N)N)c(-c2ccc(C(F)(F)F)cc2)cc1-c1ccc(C(F)(F)F)cc1 [Compound 144] |  | 3 (≈ 5.03 µM) | 0.247 |  |  | EC50 [3]: 27 µM; EC50 [4]: 90 µM |
| CC(C)(C)c1cc(NC(=O)c2cccc(C(=O)Nc3cc(C(C)(C)C)cc(NC(=O)C(N)Cc4ccccc4)c3SCCN)c2)c(SCCN)c(NC(=O)C(N)Cc2ccccc2)c1 (centres unmarked) [Compound 109] | 0.438 |  |  |  |  | IC50 [2]: 0.601 µM |
| N=C(N)NCCSc1ccc(NC(=O)Nc2ccc(SCCN)c(C(F)(F)F)c2)cc1C(F)(F)F [Compound 130] |  |  |  |  |  | IC50 [2]: 0.976 µM |
| CN(CCCCC(=O)Nc1cc(C(C)(C)C)cc(NC(=O)c2cccc(C(=O)Nc3cc(C(C)(C)C)cc(NC(=O)CCCCN(C)c4ccccn4)c3SCCN)c2)c1SCCN)c1ccccn1 [Compound 118] | 0.74 |  |  |  |  | IC50 [2]: 1.15 µM |
| CC(C)(C)c1cc(N)c(SCCN)c(NC(=O)c2cccc(C(=O)Nc3cc(C(C)(C)C)cc(N)c3SCCN)c2)c1 [Compound 110] | 0.563 |  |  |  |  | IC50 [2]: 0.74 µM |
| N=C(N)NCCc1cccc(-c2cnc(-c3cccc(CCNC(=N)N)c3)s2)c1 [Compound 243] | 0.058 |  |  | 523 | 723 |  |
| CC(=O)NCCSc1c(NC(=O)CCCCNC(=N)N)cc(Br)cc1NC(=O)c1cc(C(=O)Nc2cc(Br)cc(NC(=O)CCCCNC(=N)N)c2SCCNC(C)=O)ncn1 [Compound 169] |  | 210 (≈ 205 µM) | 0.15 |  |  | IC50 [1, 5]: 0.317 µM |
| c1cc2sc3ccc(N4CCNCC4)cc3c2cc1N1CCNCC1 [Compound 291] | > 0.1 |  |  | 345 | 410 |  |
| N=C(N)NCCc1cccc(-c2ccc(-c3cccc(CCNC(=N)N)c3)o2)c1 [Compound 240] | 0.121 |  |  | 461 | 904 |  |
| CC(C)(C)c1cc(N)c(SCCCC(=N)N)c(NC(=O)c2cccc(C(=O)Nc3cc(C(C)(C)C)cc(N)c3SCCCC(=N)N)c2)c1 [Compound 113] | 0.668 |  |  |  |  | IC50 [2]: 0.611 µM |
| O=C(Nc1ccc(OC2CCNCC2)cc1)c1cc(C(=O)Nc2ccc(OC3CCNCC3)cc2)ncn1 [Compound 199] | 0.01 |  |  | 192 | 353 |  |
| N=C(N)NCCCCCC(=O)Nc1cc(C(F)(F)F)cc(NC(=O)c2cc(C(=O)Nc3cc(C(F)(F)F)cc(NC(=O)CCCCCNC(=N)N)c3SCCN)ncn2)c1SCCN [Compound 106] | 0.286 |  |  | 79 | 89 |  |
| Nc1cc(NC(=O)c2cc(C(=O)Nc3ccc(N4CCNCC4)c(F)c3)ncn2)ccc1N1CCNCC1 [Compound 218] | 0.056 |  |  | 46 | 233 |  |
| NCCc1cccc(-c2cncc(-c3ccc(-c4cncc(-c5cccc(CCN)c5)c4)s3)c2)c1 [Compound 223] | 0.516 |  |  | 18 | 82 |  |
| CC(C)(C)c1cc(NC(=O)c2cccc(C#N)c2)c(SCCN)c(NC(=O)c2cc(C(=O)Nc3cc(C(C)(C)C)cc(NC(=O)c4cccc(C#N)c4)c3SCCN)ncn2)c1 [Compound 198] | 0.005 |  |  | 7 | 30 |  |
| NCCSc1nc(-c2cccc(CCN)c2)cc(-c2cccc(CCN)c2)n1 [Compound 220] | 1.55 |  |  | > 1000 | > 1000 |  |
| N=C(N)NCCCOc1cccc(-c2ccc(-c3cccc(OCCCNC(=N)N)c3)s2)c1 [Compound 244] | 0.149 |  |  | 20 | 19 |  |
| Cn1c(-c2ccc(CCCNC(=N)N)cc2)cnc1-c1ccc(CCCNC(=N)N)cc1 [Compound 267] | 0.029 |  |  | 651 | 823 |  |
| NCCc1cccc(-c2cncc(-c3ccc(-c4cncc(-c5cccc(CCN)c5)c4)cc3)c2)c1 [Compound 234] | 0.655 |  |  | > 1000 | > 1000 |  |
| Cn1c(-c2cccc(CCNC(=N)N)c2)cnc1-c1cccc(CCNC(=N)N)c1 [Compound 246] | 0.005 |  |  | > 1000 | > 1000 |  |

Now from value to compound, other results behind:

| IC50 [1] [µM] | EC50 (in vitro) [µg/mL] | IC50 ([2]; Plasmodium falciparum) [µM] | SMILES | EC50 (3T3 cells) [µM] | EC50 (HepG2 cells) [µM] | other results |
| --- | --- | --- | --- | --- | --- | --- |
| 0.653 |  |  | NCCOc1c(N)cc(C(F)(F)F)cc1NC(=O)c1cccc(C(=O)Nc2cc(C(F)(F)F)cc(N)c2OCCN)c1 [Compound 112] |  |  | IC50 [2]: 0.993 µM |
|  | 2 (≈ 2.06 µM) | 0.301 | N=C(N)NCCCCOc1cc(OCCCCNC(=N)N)c(C(F)(F)F)cc1NC(=O)c1cc(C(=O)Nc2cc(C(F)(F)F)c(OCCCCNC(=N)N)cc2OCCCCNC(=N)N)ncn1 [Compound 104] |  |  | EC50 [3]: 25 µM; IC50 [1, 5]: 0.2 µM; EC50 [4]: 39 µM |
|  | > 1000 | 0.563 | N=C(N)NCCCCN1CCc2ccc(NC(=O)c3cc(C(=O)Nc4ccc5c(c4)CCN(CCCCNC(=N)N)CC5)ncn3)cc2CC1 [Compound 151] |  |  | EC50 [3]: 469 µM; EC50 [4]: 408 µM |
| 0.87 |  |  | N=C(N)NCCCCC(=O)Nc1cc(C(F)(F)F)cc(NC(=O)c2cc(C(=O)Nc3cc(C(F)(F)F)cc(NC(=O)CCCCNC(=N)N)c3SCCN)[nH]n2)c1SCCN [Compound 119] |  |  | IC50 [2]: 0.688 µM |
|  |  | 0.524 | COC(=O)CCSc1c(NC(=O)CCCCNC(=N)N)cc(C(F)(F)F)cc1NC(=O)c1cc(C(=O)Nc2cc(C(F)(F)F)cc(NC(=O)CCCCNC(=N)N)c2SCCC(=O)OC)ncn1 [Compound 171] |  |  | IC50 [1, 5]: 0.893 µM |
|  | 61 (≈ 66.1 µM) | 0.656 | N=C(N)NCCSc1cc(SCCNC(=N)N)c(C(F)(F)F)cc1NC(=O)c1cc(C(=O)Nc2cc(C(F)(F)F)c(SCCNC(=N)N)cc2SCCNC(=N)N)ncn1 [Compound 114] |  |  | EC50 [3]: 31 µM; IC50 [1, 5]: 0.672 µM; EC50 [4]: 57 µM |
|  | 17 (≈ 28.6 µM) | 1.09 | FC(F)(F)c1ccc(CN2CCNCC2)cc1Oc1ccc(Oc2cc(CN3CCNCC3)ccc2C(F)(F)F)cc1 [Compound 158] |  |  | EC50 [3]: 14 µM; IC50 [1, 5]: 0.655 µM; EC50 [4]: 29 µM |
| 0.306 |  |  | CC(=O)Nc1cc(C(C)(C)C)cc(NC(=O)c2cccc(C(=O)Nc3cc(C(C)(C)C)cc(NC(C)=O)c3SCCN)c2)c1SCCN [Compound 108] |  |  | IC50 [2]: 0.419 µM |
|  | 39 (≈ 48.6 µM) | 0.398 | N=C(N)NCCCc1cc(SCCN)c(NC(=O)c2cc(C(=O)Nc3cc(C(F)(F)F)c(CCCNC(=N)N)cc3SCCN)ncn2)cc1C(F)(F)F [Compound 116] |  |  | EC50 [3]: 76 µM; IC50 [1, 5]: 0.706 µM; EC50 [4]: 95 µM |
|  | > 1000 | 0.564 | COc1ccc(CN)cc1NC(=O)c1cc(C(=O)Nc2cc(CN)ccc2OC)ncn1 [Compound 175] |  |  | EC50 [3]: 302 µM; IC50 [1, 5]: 0.423 µM; EC50 [4]: 362 µM |
|  | 197 (≈ 314 µM) | 0.53 | N=C(N)NCCN1CCc2ccc(NC(=O)c3cc(C(=O)Nc4ccc5c(c4)CCN(CCNC(=N)N)CC5)ncn3)cc2CC1 [Compound 150] |  |  | EC50 [3]: 168 µM; EC50 [4]: 157 µM |
| 0.012 |  |  | N=C(N)NCCc1ccccc1-c1ccc(-c2ccccc2CCNC(=N)N)s1 [Compound 251] | 559 | 692 |  |
| 0.086 |  |  | CCn1c2ccc(C3CCN(C(=N)N)CC3)cc2c2cc(C3CCN(C(=N)N)CC3)ccc21 [Compound 285] | 587 | 815 |  |
| 0.041 |  |  | O=C(Nc1ccc(O[C@@H]2CCNC2)c(C(F)(F)F)c1)c1cc(C(=O)Nc2ccc(O[C@@H]3CCNC3)c(C(F)(F)F)c2)ncn1 [Compound 187] | 42 | 130 |  |
|  | > 1000 | 0.081 | NC1CCC(N2CCc3ccc(NC(=O)c4cc(C(=O)Nc5ccc6c(c5)CCN(C5CCC(N)CC5)CC6)ncn4)cc3CC2)CC1 (centres unmarked) [Compound 148] |  |  | EC50 [3]: > 1000 µM; EC50 [4]: > 1000 µM |
| 0.038 |  |  | N=C(N)NCCSc1ccc(NC(=O)Nc2ccc(OC3CCN(C(=N)N)C3)c(C(F)(F)F)c2)cc1C(F)(F)F (centres unmarked) [Compound 272] | 65 | 214 |  |
| > 2 |  |  | NCCc1cccc(-c2ccc(-c3cccc(CCN)c3)o2)c1 [Compound 237] | 2 | 222 |  |
| 0.059 |  |  | N=C(N)NCCCc1ccc(-c2ccc(-c3ccc(CCCNC(=N)N)cc3)s2)cc1 [Compound 266] | 38 | 197 |  |
